± gives the expanded uncertainty stated by the source.
How the values were obtained:
[1] = 298.15 K; 101.33 kPa; Liquid; Vibrating tube method
[2] = refractive index (Na D-line) (dimensionless); details: 298.15 K; 101.33 kPa; Liquid; Standard Abbe refractometry

| mass density [1] | refractive index [2] | Structure (SMILES) |
| --- | --- | --- |
| 873.57 ± 0.24 kg/m3 | 1.49774 ± 0.00037 | c1ccccc1 [benzene] |
| 862.51 ± 0.24 kg/m3 | 1.49304 ± 0.00037 | CCc1ccccc1 [ethylbenzene] |
| 713.9 ± 0.17 kg/m3 | 1.40326 ± 0.00031 | CCCCCCCCC [nonane] |
| 698.6 ± 0.25 kg/m3 | 1.39519 ± 0.00037 | CCCCCCCC [octane] |

| Structure (SMILES) | mass density [1] | refractive index [2] |
| --- | --- | --- |
| CCCC[n+]1ccn(C)c1.O=S(=O)([N-]S(=O)(=O)C(F)(F)F)C(F)(F)F | 1436.35 ± 0.22 kg/m3 | 1.42706 ± 0.00031 |
| CCCn1cc[n+](C)c1.O=S(=O)([N-]S(=O)(=O)C(F)(F)F)C(F)(F)F | 1474.44 ± 0.33 kg/m3 | 1.42526 ± 0.00033 |
| Cc1ccccc1 [toluene] | 862.17 ± 0.13 kg/m3 | 1.49399 ± 0.00031 |
